Measurements published in ChEMBL document CHEMBL6083243, “Design, synthesis and biological evaluation of sulfonylurea derivatives as NLRP3 inflammasome inhibitors” (Bioorg Med Chem Lett, 2024).
Active and inactive are the calls of the source. No cut-off for these calls is given here.

Key:
[1] = tested on: BMDM; assay: Effect on NLRP3 protein expression in mouse BMDM cell lysate at 0.02 to 2 uM by Western blot analysis; assay type: functional, subcellular; conditions: dose 0.02-2 µM
[2] = biological target: NACHT, LRR and PYD domains-containing protein 3 (Mus musculus) (UniProt Q8R4B8); assay: Inhibition of NLRP3 inflammasome activation in LPS/Nigericin stimulated mouse BMDM cells assessed as reduction in IL-1 beta level by Western blot analysis; assay type: cell-based; conditions: dose 0.2-2 µM
[3] = biological target: NACHT, LRR and PYD domains-containing protein 3 (Mus musculus) (UniProt Q8R4B8); assay: Inhibition of NLRP3 inflammasome activation in LPS/Nigericin stimulated mouse BMDM cells assessed as reduction in active caspase-1 level by Western blot analysis; assay type: cell-based; conditions: dose 0.2-2 µM
[4] = biological target: NACHT, LRR and PYD domains-containing protein 3 (Mus musculus, UniProt Q8R4B8); assay: Inhibition of NLRP3 inflammasome activation in LPS/Nigericin stimulated mouse BMDM cells assessed as reduction in cleaved-IL-1 beta level by ELISA method; assay type: cell-based
[5] = biological target: Carbonic anhydrase 2 (Homo sapiens, UniProt P00918); assay: Inhibition of Carbonic anhydrase II (unknown origin)

Chain of NACHT, LRR and PYD domains-containing protein 3 (Q8R4B8 whole entry, the tested form may be a part): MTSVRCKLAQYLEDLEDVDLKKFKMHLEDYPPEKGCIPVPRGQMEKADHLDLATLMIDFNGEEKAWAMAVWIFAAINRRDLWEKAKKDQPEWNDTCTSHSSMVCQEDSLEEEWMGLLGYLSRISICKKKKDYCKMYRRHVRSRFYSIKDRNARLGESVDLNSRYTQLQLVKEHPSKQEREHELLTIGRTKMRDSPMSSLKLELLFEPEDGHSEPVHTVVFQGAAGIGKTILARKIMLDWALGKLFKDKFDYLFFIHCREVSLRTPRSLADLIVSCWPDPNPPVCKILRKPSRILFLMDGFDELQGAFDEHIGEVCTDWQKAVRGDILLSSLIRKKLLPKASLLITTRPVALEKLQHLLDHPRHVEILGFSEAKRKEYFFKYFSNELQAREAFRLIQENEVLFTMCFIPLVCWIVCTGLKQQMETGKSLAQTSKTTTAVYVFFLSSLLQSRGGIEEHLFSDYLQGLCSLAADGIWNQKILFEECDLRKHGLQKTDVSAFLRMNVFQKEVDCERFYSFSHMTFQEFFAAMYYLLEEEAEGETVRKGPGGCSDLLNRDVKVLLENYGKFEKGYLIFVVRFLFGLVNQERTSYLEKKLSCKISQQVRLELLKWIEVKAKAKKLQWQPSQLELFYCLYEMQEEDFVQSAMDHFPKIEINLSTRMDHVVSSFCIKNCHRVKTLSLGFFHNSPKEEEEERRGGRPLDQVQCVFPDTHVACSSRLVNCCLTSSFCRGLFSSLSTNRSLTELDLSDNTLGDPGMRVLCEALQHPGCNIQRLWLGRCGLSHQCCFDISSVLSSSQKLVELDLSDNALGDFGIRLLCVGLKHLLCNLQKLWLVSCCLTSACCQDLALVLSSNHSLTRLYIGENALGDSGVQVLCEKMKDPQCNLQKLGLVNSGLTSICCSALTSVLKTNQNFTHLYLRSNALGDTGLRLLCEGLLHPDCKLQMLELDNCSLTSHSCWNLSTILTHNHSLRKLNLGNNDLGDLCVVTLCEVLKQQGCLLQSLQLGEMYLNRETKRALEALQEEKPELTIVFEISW
Chain of NACHT, LRR and PYD domains-containing protein 3 (Mus musculus) (Q8R4B8 whole entry, the tested form may be a part): as above

| SMILES | Activity [1] | inhibition [2] | inhibition [3] | IC50 [4] [nM] | IC50 [5] [nM] |
| --- | --- | --- | --- | --- | --- |
| O=C(Nc1c(Br)cc(Cl)cc1Oc1ccccc1)NS(=O)(=O)c1cc(Br)cc2c1OCC2 | inactive | Dose-dependent-effect | Dose-dependent-effect | 805 |  |
| CC(C)c1cc(Cl)cc(C(C)C)c1NC(=O)NS(=O)(=O)c1cc(C(C)(C)O)co1 |  |  |  | 171 |  |
| CC(C)(O)c1coc(S(=O)(=O)NC(=O)Nc2c3c(cc4c2CCC4)CCC3)c1 |  |  |  | 126 | 11000 |
